Measurements: PubChem BioAssay (NCI)
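Step 1: Grow cells in 96-well plates. Step 2: Expose to compound for 48 hours at 5 concentrations. Step 3: Interpolate endpoints linearly; if unreached, use highest concentration. GI50 is the concentration that inhibits growth by half. TGI marks complete inhibition of growth.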

How the values were obtained:
Test in all cases: NCI anticancer screen, dose series, 48 h
[1] = tested on: MDA-N
[2] = tested on: MDA-MB-231 breast
[3] = tested on: NCI/ADR-RES ovarian
[4] = tested on: DU-145 prostate
[5] = tested on: KM20L2 colon
[6] = tested on: SNB-78 CNS
[7] = tested on: LXFL 529 NSCLC
[8] = tested on: HOP-18 NSCLC
[9] = tested on: RXF-631 renal

| SMILES | TGI [2] [µM] | TGI [3] [µM] | TGI [4] [µM] | TGI [5] [µM] | TGI [6] [µM] | TGI [7] [µM] | further results |
| --- | --- | --- | --- | --- | --- | --- | --- |
| CCC1CCC2C3CC=C4CC(OC(C)=O)C(N)CC4(C)C3CCC12C (stereo not given) | 4.09 | 14.2 | 8.33 | – | – | – | TGI [1]: 6.92 µM |
| [O-]c1ccccc1[C-]=Nc1ccccc1O.[O-]c1ccccc1[C-]=Nc1ccccc1O.[O]=[U]=[O] | – | – | – | > 100 | 61.2 | 34.8 | GI50 [5]: 0.856 µM; GI50 [6]: 21.3 µM; GI50 [7]: 4.11 µM |
| CC/C=C\C[C@H](O)C/C=C1/C(=O)C=C[C@@H]1C/C=C\CCCC(=O)OCCS(=O)(=O)c1ccccc1 | 20.7 | 20.5 | 17.8 | – | – | – | GI50 [2]: 5.34 µM; GI50 [3]: 3.43 µM; GI50 [4]: 5.24 µM |
| CC1(OCc2ccccc2)C(=O)N2C1N(C(=O)OCc1ccccc1)CC2(C)C (stereo not given) | – | – | – | > 100 | – | > 100 | – |
| Nc1ncnc2c1ncn2C1OC(CO)CC1O (stereo not given) | 42.7 | 55.2 | > 100 | – | – | – | TGI [1]: > 100 µM |
| O=C1C2c3[nH]c4ccccc4c3C3CCC(c4ccccc4)CC3C2C(=O)N1c1ccccc1 (stereo not given) | – | – | – | – | > 100 | > 100 | TGI [8]: > 100 µM |
| CN(C)c1ccc(/C=N/NC(=O)CSc2nc3sc4c(c3c(=O)n2-c2ccccc2)CCCCC4)cc1 | 18 | > 100 | > 100 | – | – | – | GI50 [2]: 2.89 µM; GI50 [3]: 7.85 µM; GI50 [4]: 3.41 µM |
| CC(=O)CC(=O)ON(C)C(C)=O | – | – | – | > 100 | > 100 | > 100 | – |
| Clc1cc2nc[nH]c2cc1Cl | – | – | – | – | > 100 | > 100 | TGI [8]: > 100 µM |
| COc1ccc(-c2cc(=O)c3c(OC)c(O)c(OC)cc3o2)cc1 | > 100 | > 100 | > 100 | – | – | – | TGI [1]: > 100 µM |
| COc1ccc(C(=C(C#N)C#N)c2ccc(OC)cc2)cc1 | – | – | – | > 100 | > 100 | > 100 | – |
| CC(C)(C)n1nc(C2CC2)cc1NC(=O)Nc1ccc(Cl)cc1 | > 100 | > 100 | > 100 | – | – | – | – |
| NNC(=O)C(O)C(O)C(O)CO (stereo not given) | > 100 | > 100 | > 100 | – | – | – | TGI [1]: > 100 µM |
| OCC(O)C(O)C(O)c1nn[nH]n1 (stereo not given) | – | – | – | – | > 100 | > 100 | – |
| COc1cc(/C=C/C(=O)c2ccc(F)cc2)ccc1OCCCCOc1cc2c(cc1OC)C(=O)N1CCCC1C=N2 (stereo not given) | > 21.2 | > 26.4 | 5.46 | – | – | – | GI50 [2]: 1.27 µM; GI50 [3]: 0.936 µM; GI50 [4]: 0.994 µM |
| C/C(=N\NC(=O)C[n+]1ccccc1)c1sc(-c2nc(C)c(/C(C)=N/NC(=O)C[n+]3ccccc3)s2)nc1C | – | – | – | > 100 | > 100 | > 100 | – |
| CN(C)C(=O)C(NCCO)c1ccccc1 (stereo not given) | > 100 | – | > 100 | – | – | – | TGI [1]: > 100 µM |

| SMILES | TGI [2] [µM] | TGI [3] [µM] | TGI [4] [µM] | TGI [5] [µM] | TGI [6] [µM] | TGI [7] [µM] | further results |
| --- | --- | --- | --- | --- | --- | --- | --- |
| CCCCCCCCCCCCCCCCCc1cc(Cl)nc(Cl)n1 | – | > 100 | – | – | – | – | – |
| O=C1C2=C(C(=O)c3c(O)ccc(O)c31)N(c1cccnc1)Cc1ccccc1O2 | 0.876 | > 25.9 | 1.17 | – | – | – | GI50 [2]: 0.265 µM; GI50 [3]: 0.861 µM; GI50 [4]: 0.351 µM |
| C=C(C)[C@@H]1CC[C@]2(C(=O)N3CCN(C)CC3)CC[C@]3(C)[C@H](CC[C@@H]4[C@@]5(C)C/C(=C/c6ccncc6)[C@H](O)C(C)(C)[C@@H]5CC[C@]43C)[C@@H]12 | 19.3 | 23.2 | 24 | – | – | – | GI50 [2]: 4.46 µM; GI50 [3]: 4.81 µM; GI50 [4]: 9.53 µM |
| O=C1C[C@@H]2[C@@H](C=CC23CC3)N1O | – | – | – | > 100 | > 100 | > 100 | TGI [8]: > 100 µM |
| Cc1cc(Cl)ccc1NC(=O)C1C(=O)C(=O)N(c2ccc(Cl)cc2C)C1=O (stereo not given) | – | – | – | > 100 | > 100 | > 100 | TGI [9]: > 100 µM |
| CCN1C(=O)/C(=C\c2coc3ccccc3c2=O)SC1=S | – | – | – | > 100 | > 100 | > 100 | TGI [8]: > 100 µM |
| COc1cccc(-c2cc(C(=O)Nc3ccc(Cl)cc3)nc(N)n2)c1 | – | – | – | > 100 | > 100 | > 100 | TGI [8]: > 100 µM |
| CCOc1cccc2sc(N)nc12 | – | – | – | > 100 | > 100 | > 100 | TGI [8]: > 100 µM |
| O=C1c2cccc3c([N+](=O)[O-])ccc(c23)C(=O)N1CCCCl | > 10 | > 10 | > 10 | – | – | – | GI50 [2]: > 10 µM; GI50 [3]: 8.42 µM; GI50 [4]: 4.56 µM |
| CC[C@@]1(O)C(=O)OCc2c1cc1n(c2=O)Cc2cc3c([N+](=O)[O-])c(O)ccc3nc2-1 | – | – | – | 38.4 | > 100 | > 100 | GI50 [8]: 0.758 µM; TGI [8]: > 100 µM; GI50 [5]: 1.97 µM; GI50 [6]: 6.6 µM; GI50 [7]: 4.33 µM |
| CN1C(=O)C(C)(C)NS1(=O)=O | – | – | – | > 100 | > 100 | > 100 | TGI [9]: > 100 µM |
| Cc1cc(N(CCC#N)CCC#N)ccc1/C=C(\NC(=O)/C=C/c1ccccc1)NC(=O)Nc1ccccc1C | – | – | – | > 100 | > 100 | > 100 | TGI [9]: > 100 µM |
| COc1ccc(-c2cnc(SCC(=O)c3c(C)n(C)n(-c4ccccc4)c3=O)n2-c2ccc(OC)cc2)cc1 | > 50 | > 50 | > 50 | – | – | – | GI50 [2]: > 50 µM; GI50 [3]: > 50 µM; GI50 [4]: 9.13 µM |
| O=C(/C=C/c1ccccc1)Nc1ncc(Cc2ccccc2)s1 | 9.28 | 5.5 | > 100 | – | – | – | GI50 [2]: 0.415 µM; GI50 [3]: 0.178 µM; GI50 [4]: 0.396 µM |
| O=C(CC(O)c1cccnc1)CC(O)c1cccnc1 (stereo not given) | 29.9 | > 66.1 | > 89.7 | – | – | – | TGI [1]: 25.5 µM |
| C[C@]12CC/C(=N\O)C[C@@H]1CC[C@@H]1[C@@H]2CC[C@]2(C)/C(=N/O)CC[C@@H]12 | 73.8 | > 100 | > 100 | – | – | – | GI50 [2]: 26 µM; GI50 [3]: 44.2 µM; GI50 [4]: 80.7 µM |
| CC(/C=C/C=C\C=C\C=C(/C)C(=O)NC(C)CO)=C\C(C)C(O)/C(C)=C/C(C)CCc1ccccc1 (stereo not given) | 45.2 | 93 | > 100 | 25.1 | 25.2 | 18.7 | TGI [1]: 31.5 µM; TGI [8]: 24.2 µM |
